In series [1] the target is T1, rat histamine H3 receptor (Rattus norvegicus, UniProt Q9QYN8).
T1 construct: encoding the entire 445-amino-acid rat histamine H3 receptor; expressed in transfected cells
Description: Rat H3 radioligand binding ([3H]-N-alpha-methylhistamine, CHO-A3 cell membranes). Particulars: Rat H3 binding constant, class symbols; read-out: rH3 Ki. The text has this:
Cell line development and membrane preparation. The rat H3 receptor cDNA was PCR amplified from reverse-transcribed RNA pooled from rat thalamus, hypothalamus, striatum and prefrontal cortex with a sequence corresponding to by #338-1672 of Genbank file #NM_053506, encoding the entire 445-amino-acid rat histamine H3 receptor. This was engineered into the pIRES-neo3 mammalian expression vector, which was stably transfected into the CHO-A3 cell line (Euroscreen, Belgium), followed by clonal selection by limiting dilution. Cells were harvested and cell pellets were frozen (−80° C.). Cell pellets were resuspended in 5 mM Tris-HCl, pH 7.5 with 5 nM EDTA and a cocktail of protease inhibitors (Complete Protease Inhibitor Tablets, Roche Diagnostics). Cells were disrupted using a polytron cell homogenizer and the suspension was centrifuged at 1000×g for 10 minutes at 4° C. The pellet was discarded and the supernatant centrifuged at 40,000×g for 30 min at 4° C. This membrane pellet was washed in membrane buffer containing 50 mM Tris-HCl, pH 7.5 with 0.6 mM EDTA, 5 mM MgCl2 and protease inhibitors, recentrifuged as above and the final pellet resuspended in membrane buffer plus 250 mM sucrose and frozen at −80° C.
(§1) Radioligand Binding. Membranes were resuspended in 50 mM Tris HCl (pH 7.4), 5 mM MgCl2, 0.1% BSA. The membrane suspensions (10 μg protein per well) were incubated in a 96 well microtiter plate with [^3H]-N-alpha-methylhistamine (approximately 1 nM final concentration), test compounds at various concentrations (0.01 nM-30 μM) and scintillation proximity beads (Perkin Elmer, FlashBlueGPCR Scintillating Beads) in a final volume of 80 μl for 4 hours at room temperature, protected from light. Non-specific binding was determined in the presence of 10 μM clobenpropit. Radioligand bound to receptor, and therefore in proximity to the scintillation beads, was measured using a MicroBeta scintillation counter.

The next series addresses T2, human H3 receptor (Homo sapiens, UniProt Q9Y5N1).
T2 construct: expressed in transfected cells
Description: Human H3 radioligand binding ([3H]-N-alpha-methylhistamine, CHO cell membranes). Particulars: Human H3 binding constant, class symbols; read-out: hH3 Ki. As for the experimental part:
Methods: CHO cells stably expressing the human H3 receptor (GenBank: NM_007232) were harvested and cell pellets were frozen (−80° C.). Cell pellets were resuspended in 5 mM Tris-HCl, pH 7.5 with 5 nM EDTA and a cocktail of protease inhibitors (Complete Protease Inhibitor Tablets, Roche Diagnostics). Cells were disrupted using a polytron cell homogenizer and the suspension was centrifuged at 1000×g for 10 minutes at 4° C. The pellet was discarded and the supernatant centrifuged at 40,000×g for 30 min at 4° C. This membrane pellet was washed in membrane buffer containing 50 mM Tris-HCl, pH 7.5 with 0.6 mM EDTA, 5 mM MgCl2 and protease inhibitors, recentrifuged as above and the final pellet resuspended in membrane buffer plus 250 mM sucrose and frozen at −80° C.
as §1

Structures can show the parent of a compound that is named as a salt.

T2 sequence (Q9Y5N1 whole entry): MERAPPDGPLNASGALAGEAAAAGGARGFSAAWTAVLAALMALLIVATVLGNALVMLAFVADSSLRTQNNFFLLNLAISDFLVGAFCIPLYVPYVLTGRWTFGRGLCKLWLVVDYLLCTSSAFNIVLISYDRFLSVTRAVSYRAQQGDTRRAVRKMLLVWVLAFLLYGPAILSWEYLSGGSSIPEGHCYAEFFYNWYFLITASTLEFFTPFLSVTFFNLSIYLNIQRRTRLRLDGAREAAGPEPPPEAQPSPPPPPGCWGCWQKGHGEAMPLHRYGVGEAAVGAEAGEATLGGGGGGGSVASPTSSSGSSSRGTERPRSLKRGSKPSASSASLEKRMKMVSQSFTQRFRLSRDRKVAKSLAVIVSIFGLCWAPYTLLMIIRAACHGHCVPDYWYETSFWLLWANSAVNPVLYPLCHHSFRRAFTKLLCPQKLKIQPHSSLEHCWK
T1 sequence (Q9QYN8 whole entry): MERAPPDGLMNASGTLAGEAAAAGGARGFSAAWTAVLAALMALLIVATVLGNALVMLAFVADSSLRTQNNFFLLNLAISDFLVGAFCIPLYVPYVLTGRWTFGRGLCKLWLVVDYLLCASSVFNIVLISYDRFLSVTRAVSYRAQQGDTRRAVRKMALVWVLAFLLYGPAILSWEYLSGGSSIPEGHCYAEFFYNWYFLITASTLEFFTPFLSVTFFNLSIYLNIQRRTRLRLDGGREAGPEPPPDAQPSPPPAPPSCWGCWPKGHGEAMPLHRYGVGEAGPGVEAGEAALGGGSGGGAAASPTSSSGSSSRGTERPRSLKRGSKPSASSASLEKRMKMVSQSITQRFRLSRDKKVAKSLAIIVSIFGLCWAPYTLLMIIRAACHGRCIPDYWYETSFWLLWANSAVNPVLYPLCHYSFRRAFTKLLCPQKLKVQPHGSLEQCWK

What is called melting point is the temperature of the solid-liquid transition. With `Cn1nc(-c2ccc3c(c2)CCN(C2CCCC2)CC3)ccc1=O` (as salt: HCl) [Example 23, 6-(3-Cyclopentyl-2,3,4,5-tetrahydro-1H-benzo[d]azepin-7-yl)-2-methyl-2H-pyridazin-3-one. HCl], the melting point fell in the range of 239 to 240 °C.
One may read the Ki as a dissociation constant, usually derived from enzyme kinetics or from competition with a known ligand. As to `Cn1nc(-c2ccc3c(c2)CCNCC3)ccc1=O` [Example 20, 2-Methyl-6-(2,3,4,5-tetrahydro-1H-benzo[d]azepin-7-yl)-2H-pyridazin-3-one], the melting point fell in the range of 183 to 185 °C. In series [1], the inhibitory constant (Ki) was greater than 1000 nM. Further, the inhibitory constant (Ki) on human H3 receptor was greater than 1000 nM.
In the case of `Cn1nc(-c2ccc3c(c2)CCN(C2CCC2)CC3)ccc1=O` [Example 21, 6-(3-Cyclobutyl-2,3,4,5-tetrahydro-1H-benzo[d]azepin-7-yl)-2-methyl-2H-pyridazin-3-one], the melting point is 287 to 288 °C. Moreover, the inhibition constant Ki in series [1] is less than 100 nM. Besides, at human H3 receptor, the Ki was less than 100 nM.
As for `CCCCn1nc(-c2ccc3c(c2)CCN(C2CCC2)CC3)ccc1=O` [Example 14, 2-Butyl-6-(3-cyclobutyl-2,3,4,5-tetrahydro-1H-benzo[d]azepin-7-yl)-2H-pyridazin-3-one], the melting point lay in the range of 88 to 89 °C. Besides, the inhibition constant (Ki) in series [1] was less than 100 nM. For the same compound, the Ki at human H3 receptor was less than 100 nM.
`O=c1ccc(-c2ccc(Oc3ccc4c(c3)CCN(C3CCC3)CC4)nc2)nn1-c1ccccn1` [Example 28, 6-[6-(3-Cyclobutyl-2,3,4,5-tetrahydro-1H-benzo[d]azepin-7-yloxy)-pyridin-3-yl]-2-pyridin-2-yl-2H-pyridazin-3-one] registered a melting point of 178 to 182 °C. For the same compound, the Ki in series [1] was less than 100 nM. In addition, at human H3 receptor, the Ki was less than 100 nM.
`O=c1ccc(-c2ccc(Oc3ccc4c(c3)CCN(C3CCC3)CC4)nc2)n[nH]1` [Example 27, 6-[6-(3-Cyclobutyl-2,3,4,5-tetrahydro-1H-benzo[d]azepin-7-yloxy)-pyridin-3-yl]-2H-pyridazin-3-one] showed a melting point of 215 to 220 °C. Moreover, the inhibitory constant (Ki) in series [1] was less than 100 nM. Moreover, at human H3 receptor, the Ki was less than 100 nM.
Regarding `CC(C)N1CCc2ccc(-c3ccc(=O)n(C)n3)cc2CC1` (as salt: HCl) [Example 22, 6-(3-Isopropyl-2,3,4,5-tetrahydro-1H-benzo[d]azepin-7-yl)-2-methyl-2H-pyridazin-3-one. HCl], the melting point was in the range of 254 to 256 °C.
`CC(C)CN1N=C(c2ccc3c(c2)CCN(C2CCC2)CC3)CCC1=O` [Example 15, 6-(3-Cyclobutyl-2,3,4,5-tetrahydro-1H-benzo[d]azepin-7-yl)-2-isobutyl-4,5-dihydro-2H-pyridazin-3-one] yielded a melting point of 134 to 135 °C. Also, the Ki in series [1] is 100 to 1000 nM. Also, the inhibition constant Ki on human H3 receptor was less than 100 nM.
Compound `CC(C)N1CCc2ccc(-c3ccc(=O)n(C(C)C)n3)cc2CC1` [Example 8, 2-Isopropyl-6-(3-isopropyl-2,3,4,5-tetrahydro-1H-benzo[d]azepin-7-yl)-2H-pyridazin-3-one] gave a melting point of 244 to 245 °C. Also, in series [1], the Ki is 100 to 1000 nM. Moreover, the inhibition constant Ki at human H3 receptor was in the range of 100 to 1000 nM.
In turn, `CCCCN1N=C(c2ccc3c(c2)CCN(C2CCC2)CC3)CCC1=O` [Example 13, 2-Butyl-6-(3-cyclobutyl-2,3,4,5-tetrahydro-1H-benzo[d]azepin-7-yl)-4,5-dihydro-2H-pyridazin-3-one] registered a melting point of 104 to 105 °C. Further, the Ki in series [1] was less than 100 nM. Further, the inhibition constant Ki at human H3 receptor is less than 100 nM.
Consider `O=C1CCC(c2ccc3c(c2)CCN(C2CCC2)CC3)=NN1CC(F)(F)F` [Example 10, 6-(3-Cyclobutyl-2,3,4,5-tetrahydro-1H-benzo[d]azepin-7-yl)-2-(2,2,2-trifluoro-ethyl)-4,5-dihydro-2H-pyridazin-3-one], for which the melting point was in the range of 139 to 140 °C. For the same compound, the Ki in series [1] is less than 100 nM. Further, the inhibition constant Ki at human H3 receptor was less than 100 nM.
As for `CC(C)Cn1nc(-c2ccc3c(c2)CCN(C2CCC2)CC3)ccc1=O` [Example 16, 6-(3-Cyclobutyl-2,3,4,5-tetrahydro-1H-benzo[d]azepin-7-yl)-2-isobutyl-2H-pyridazin-3-one], the melting point lay within 245 to 246 °C. Also, the inhibition constant Ki in series [1] lay in the range of 100 to 1000 nM. For the same compound, the Ki at human H3 receptor was less than 100 nM.
`Cn1nc(-c2ccc(Oc3ccc4c(c3)CCN(C3CCC3)CC4)nc2)ccc1=O` [Example 26, 6-[6-(3-Cyclobutyl-2,3,4,5-tetrahydro-1H-benzo[d]azepin-7-yloxy)-pyridin-3-yl]-2-methyl-2H-pyridazin-3-one] had a melting point of 134 to 137 °C. The Ki in series [1] was less than 100 nM. Further, at human H3 receptor, the Ki is less than 100 nM.
The compound `CCN1N=C(c2ccc3c(c2)CCN(C2CCC2)CC3)CCC1=O` [Example 12, 6-(3-Cyclobutyl-2,3,4,5-tetrahydro-1H-benzo[d]azepin-7-yl)-2-ethyl-4,5-dihydro-2H-pyridazin-3-one] gave a melting point of 97 to 98 °C. Also, the Ki in series [1] was less than 100 nM. Further, the Ki at human H3 receptor is less than 100 nM.
For `O=c1ccc(-c2ccc3c(c2)CCN(C2CCC2)CC3)nn1CCO` [Example 18, 6-(3-Cyclobutyl-2,3,4,5-tetrahydro-1H-benzo[d]azepin-7-yl)-2-(2-hydroxy-ethyl)-2H-pyridazin-3-one], the melting point was 157 to 158 °C. For the same compound, in series [1], the inhibition constant Ki is less than 100 nM. In addition, the Ki at human H3 receptor is less than 100 nM.
`O=c1ccc(-c2ccc3c(c2)CCN(C2CCC2)CC3)n[nH]1` [Example 2, 6-(3-Cyclobutyl-2,3,4,5-tetrahydro-1H-benzo[d]azepin-7-yl)-2H-pyridazin-3-one] had a melting point of 250 to 251 °C. Besides, in series [1], the inhibitory constant (Ki) was less than 100 nM. Also, the Ki on human H3 receptor is less than 100 nM.
`CC(C)n1nc(-c2ccc3c(c2)CCN(C2CCC2)CC3)ccc1=O` [Example 7, 6-(3-Cyclobutyl-2,3,4,5-tetrahydro-1H-benzo[d]azepin-7-yl)-2-isopropyl-2H-pyridazin-3-one] showed a melting point of 199 to 200 °C. In addition, in series [1], the Ki fell in the range of 100 to 1000 nM. Further, the inhibition constant (Ki) on human H3 receptor was less than 100 nM.
As for `O=C1NN=C(c2ccc3c(c2)CCN(C2CCC2)CC3)C2CC12` (stereo not drawn) (as salt: HCl) [Example 40, 5-(3-Cyclobutyl-2,3,4,5-tetrahydro-1H-benzo[d]azepin-7-yl)-3,4-diaza-bicyclo[4.1.0]hept-4-en-2-one], the melting point is 129 to 132 °C.
Consider `C[C@@H]1CCCN1CCc1ccc2cc(-c3ccc(=O)[nH]n3)ccc2c1` (as salt: HCl) [Example 70, 6-{6-[2-((R)-2-Methyl-pyrrolidin-1-yl)-ethyl]-naphthalen-2-yl}-2H-pyridazin-3-one], for which the melting point lay in the range of 295 to 298 °C.
In turn, `O=C1NN=C(c2ccc3c(c2)CCNCC3)C2CC12` (stereo not drawn) (as salt: HCl) [Example 39, 5-(2,3,4,5-Tetrahydro-1H-benzo[d]azepin-7-yl)-3,4-diaza-bicyclo[4.1.0]hept-4-en-2-one] returned a melting point of 148 to 151 °C.
With `O=c1ccc(-c2ccc(CCN3CCCCC3)cc2)nn1-c1ccccc1` [Example 65], the Ki (in series [1]; at human H3 receptor) was 100 to 1000 nM in each case.
In the case of `Cn1ncc(Oc2ccc3c(c2)CCN(C2CCC2)CC3)c(Br)c1=O` [Example 31, 4-Bromo-5-(3-cyclobutyl-2,3,4,5-tetrahydro-1H-benzo[d]azepin-7-yloxy)-2-methyl-2H-pyridazin-3-one], the Ki (in series [1]; on human H3 receptor) was less than 100 nM each time.

These data come from patent publication US20110098269A1, “Substituted Pyridazinone Derivatives as Histamine-3 (H3) Receptor Ligands” (Cephalon, Inc., priority 2008, published 2011).
